Reference: patent US12528818B2, “Compositions and methods for inhibition of RAS” (Leidos Biomedical Research, Inc., priority 2021, dated 2026)

System: pERK in NCI-H358 cells
Assay: Cell-based pERK HTRF assay (pERK inhibition in H358 cells)
Conditions: Homo sapiens, NCI-H358, 0.5 h, pERK inhibition IC50, NCI-H358 cells, 30 min incubation; read-out: PERK in H358 cell
Protocol: On Day 1, cells (NCI-H358) were seeded into 96-well plates at 4×10^4 cells/well in complete growth media (RPMI, 10% FBS).
The source plate was created with compounds diluted in media at 5-fold the final assay concentration. […] 20 μL was transferred onto the cell plates (final volume in wells was 100 μL). Plates were harvested after 30 min incubation by aspirating media and adding kit-supplied 1× supplemented lysis buffer to all wells (75 μl per well). Plates were then placed on a plate shaker and incubated at 850 rpm for an additional 30 min.
Antibody mixture solution was prepared by diluting aliquoted d2 and Eu Cryptate antibodies 1:20 in kit supplied detection buffer, then mixed the diluted antibodies solutions (1:1 v:v).
Samples were homogenized by pipetting up and down and then transferred (16 μL of cell lysates) from the 96-well cell culture plate to two wells of the HTRF 384-well detection plate containing the antibody solution. Plates were centrifuged (524 g for 1 min) and allowed to incubate between 4 and 24 h at room temperature. Maximum signal is reached after 4 h incubation time and remains stable over a period of 24 hours. Therefore, readings can be made between 4 and 24 h of incubation.

Row | SMILES | IC50 [nM]
1 | C=CC(=O)N1C[C@H](C)N(c2nc(OC[C@@]34CCCN3C[C@H](F)C4)nc3c(Cl)c(-c4ccc(F)c5sc(N)nc45)c(C(F)(F)F)cc23)C[C@H]1C [Compound 295, 1-((2R,5S)-4-(7-(2-amino-7-fluorobenzo[d]thiazol-4-yl)-8-chloro-2-(((2R,7aS)-2-fluorotetrahydro-1H-pyrrolizin-7a(5H)-yl)methoxy)-6-(trifluoromethyl)quinazolin-4-yl)-2,5-dimethylpiperazin-1-yl)prop-2-en-1-one] | < 100
2 | C=CC(=O)N1C[C@H](C)N(c2nc(OC[C@@]34CCCN3C[C@H](OC)C4)nc3c(F)c(-c4ccc(F)c5sc(N)nc45)c(C(F)(F)F)cc23)C[C@H]1C (atropisomer, axis not shown) [Compound 289] | < 100
3 | C=CC(=O)N(C)C1CN(c2nc(OCC34CCCN3CCC4)nc3c(F)c(-c4ccc(F)c5sc(N)nc45)c(Cl)cc23)C1 [Compound 167] | > 1000
4 | C=CC(=O)N1C[C@H](C)N(c2nc(OC[C@@H]3C[C@@H](OC)CN3C)nc3c(F)c(-c4ccc(F)c5sc(N)c(C#N)c45)c(C(F)(F)F)cc23)C[C@H]1C [Compound 408] | < 100
5 | C=CC(=O)N1CC(Nc2ncnc3c(F)c(-c4ccc(F)c5sc(N)nc45)cc(OC)c23)C1 [Compound 69, 1-(3-((7-(2-amino-7-fluorobenzo[d]thiazol-4-yl)-8-fluoro-5-methoxyquinazolin-4-yl)amino)azetidin-1-yl)prop-2-en-1-one] | > 1000

Second part, the compound after the results:

Row | IC50 [nM] | SMILES
6 | < 100 | C=CC(=O)N1C[C@H](F)[C@@H](N(C)c2nc(OC[C@@]34CCCN3C[C@H](F)C4)nc3cc(-c4ccc(F)c5sc(N)c(C#N)c45)c(C(F)(F)F)cc23)C1 [Compound 320]
7 | < 100 | C=CC(=O)N1CCN(c2nc(OC[C@@]34CCCN3C[C@H](F)C4)nc3c(F)c(-c4ccc(F)c5sc(N)c(C#N)c45)c(C(F)(F)F)cc23)CC12CC2 [Compound 322]
8 | < 100 | C=CC(=O)N1CC[C@H](N(C)c2nc(OC[C@@]34CCCN3C[C@H](F)C4)nc3c(F)c(-c4ccc(F)c5sc(N)c(C#N)c45)c(C(F)(F)F)cc23)[C@@H]1C (single isomer, unassigned) [Compound 472]
9 | < 100 | C=CC(=O)N1CCC(N(C)c2nc(OC[C@@H]3C[C@@H](OC)CN3C)nc3c(F)c(-c4ccc(F)c5sc(N)c(C#N)c45)c(C(F)(F)F)cc23)[C@H]1COC (stereo partly drawn) [Compound 454]
10 | < 100 | C=CC(=O)N1C[C@@H](F)[C@@H](N(C)c2nc(OCC34CCCN3CCC4)nc3c(F)c(-c4ccc(F)c5sc(N)c(C#N)c45)c(C(F)(F)F)cc23)C1 [Compound 374]
11 | 100 to 1000 | C=CC(=O)N1CCC(N(C)c2nc(OC[C@@]34CCCN3C[C@H](F)C4)nc3c(C#N)c(-c4ccc(F)c5sc(N)c(C#N)c45)ccc23)[C@H]1COC (stereo partly drawn) [Compound 394]
12 | < 100 | C=CC(=O)N1CC[C@@H](N(C)c2nc(OC[C@@]34CCCN3C[C@H](F)C4)nc3c(F)c(-c4ccc(F)c5sc(N)c(C#N)c45)c(Cl)cc23)[C@H]1C [Compound 395, 4-(4-((1-acryloyl-2-methylpyrrolidin-3-yl)(methyl)amino)-6-chloro-8-fluoro-2-(((2R,7aS)-2-fluorotetrahydro-1H-pyrrolizin-7a(5H)-yl)methoxy)quinazolin-7-yl)-2-amino-7-fluorobenzo[b]thiophene-3-carbonitrile]
13 | < 100 | C=CC(=O)N1C[C@H](C)N(c2nc(OC[C@@]34CCCN3C[C@H](F)C4)nc3c(F)c(-c4ccc(F)c5sc(N)nc45)c(C(F)F)cc23)C[C@H]1C [Compound 291]

Same assay, conditions: pERK inhibition IC50, NCI-H358 cells, 30 min incubation; read-out: PERK in H358 cell

Row | IC50 [nM] | SMILES
14 | > 1000 | C=CC(=O)N1CC[C@@H](N(C)c2nc(OC[C@@]34CCCN3C[C@H](F)C4)nc3c(F)c(-c4ccc(F)c5sc(N)c(C#N)c45)c(C(F)(F)F)cc23)[C@H]1C (single isomer, unassigned) [Compound 435]
15 | > 1000 | C=CC(=O)N1CC[C@@H](N(c2nc(OC[C@@]34CCCN3C[C@H](F)C4)nc3c(F)c(-c4ccc(F)c5sc(N)nc45)c(C(F)(F)F)cc23)C2CC2)C1 (single isomer, unassigned) [Compound 237]
